Experimental data: patent publication US8222008B2, “Methods and compositions for treating cancer” (The Administrators of The Tulane Educational Fund, priority 2003, dated 2012)
Marks after values point to notes of the source that are not given here.

Columns and labels:
Assay type in all cases: cell-based, human
MDA-MB-468 (ER−) = assay: Apoptosis in breast cancer cell lines, CaspACE assay with flow cytometry; conditions: Tamoxifen 100 μM, 16 hours
From the text: (§1) The apoptotic effect of CDME was compared to that of tamoxifen using the CaspACE™ assay system (Promega) and conventional flow cytometry techniques.
(§2) All cell lines were obtained from the American Type Culture Collection, P.O. Box 1549, Manassas, Va., 20108 unless otherwise indicated. The cell lines studied were estrogen receptor-negative breast cancer cell lines MDA-MB-231 (ATCC Accession No. HTB-26) and MDA-MB-468 (ATCC Accession No. HTB-132) and estrogen receptor-positive breast cancer cell lines, MCF-7 (ATCC Accession No. HTB-22) and T-47D (ATCC Accession No. HTB-133).
(§3) All cell lines were grown on the bottom of 12-well flasks in Gibco RPMI-1640, until they reached the confluency of about 50%. After that, the medium was exchanged with DMEM (Sigma, D-5030), supplemented with 10% charcoal-treated FBS.
(§4) After four days (at confluency of about 75%), cells were treated by exposure to either CDME (500 μM) or tamoxifen (100 μM) or neither for 16 hours at 37° C. CaspACE™ assay analysis of the treated and control cells was performed as described in Example 2 and measured via flow cytometry. Note that the dosage of tamoxifen was a maximum positive control dose, higher than that normally administered for chemotherapy.

T-47D (ER+) = assay: as above; conditions: Tamoxifen 100 μM, 16 hours
From the text: as §1, §2, §3, §4

MDA-MB-231 (ER−) = assay: as above; conditions: Tamoxifen 100 μM, 16 hours
From the text: as §1, §2, §3, §4

MCF-7 (ER+) = assay: as above; conditions: Tamoxifen 100 μM, 16 hours
From the text: as §1, §2, §3, §4

[1] = test system: GM00008 nephropathic cystinotic fibroblasts; assay: Apoptosis by apoptotic triggers, CaspACE assay; conditions: TNF-a 30 ng/mL with actinomycin D 2.5 μg/mL for 16 hours
Procedure: (§5) Normal and cystinotic fibroblasts were purchased from the Coriell Mutant Cell Repository, and cultured in Coon modification of Ham F12 medium, supplemented with 10% fetal calf serum (FCS). Renal proximal tubule epithelial (RPTE; Biowhittaker Corp.) were cultured in renal epithelial basal medium supplemented with one Singlequots™ kit (Biowhittaker) per 500 mL to make renal epithelial growth media (REGM, Biowhittaker). Fibroblasts and RPTE were maintained in a 5% carbon dioxide, 95% air, humidified incubator at 37° C. (Thoene J. G. et al, 1976 J. Clin. Invest, 58:180-189).
(§6) Induction of apoptosis and assays for its detection were performed using commercially available reagents. Normal and cystinotic fibroblasts were matched for passage number (±3) and cell density, and then exposed to an apoptotic trigger. One apoptotic trigger used was TNF-a (30 ng/mL) with actinomycin D (2.5 μg/mL) for 16 hours. Another trigger was anti-Fas antibody (500 ng/mL) with actinomycin D (2.5 μg/mL) for 16 hours. A third trigger to induce apoptosis in the cells was Ultraviolet B light (60 mJ). See, e.g., previously described protocols of Aggarwal B B, 1992 Immunol. Ser., 56:61-78; Higuchi M. et al, 1995 J. Immunol. Meth., 178:173-181; Itoh N, et al, 1991 Cell, 66:233-243; Itoh N. et al, 1993 J. Biol. Chem., 268:10932-10937. Serum withdrawal was also used as a apoptotic stimulus (Lieberthal W, et al, 1998 Am. J. Physiol. 275:F691-F702; Verzola D. et al, 2001 Exp Nephrol., 9:366-371; Iglesias J. et al, 1999 Am. J. Physiol. 277:F711-F712; Kulkarni G V, et al, 1994 J. Cell Sci., 107:1169-1179), in which case the cells were incubated in F12 medium without serum for 24 hours and then analyzed for apoptosis.
(§7) 1. The CaspACE Assay • CaspACE (Promega) is an FITC-conjugated cell-permeable form of the pan-caspase inhibitor zVAD-Fmk, which binds to activated caspase(s). Cells were incubated in FITC-VAD-Fmk-containing medium (10 μM for 30 minutes at 37° C.), washed, and then fixed in 10% buffered formalin (30 minutes at room temperature) before analysis. The cells were visually enumerated by fluorescence microscopy, scoring a minimum of five fields (250 to 300 cells) for fluorescence in triplicate followed by counting all cells in the same field by light microscopy, with a minimum of 750 cells scored per condition. The apoptosis rate is the total number of cells that fluoresce divided by the total cells in the field.
(§8) Apoptosis was induced in three nephropathic cystinotic, two normal, one intermediate cystinotic, and one ocular cystinotic fibroblast lines by three separate inducers. In one experiment, cells were treated with apoptosis inducers as indicated above. Apoptosis in these lines was assessed by CaspACE assay and analyzed by fluorescence microscopy. A minimum of 250 cells was scored per condition, in triplicate. Thus at least 750 cells were scored precondition. T-statistics: P<0.001 for average nephropathic versus average normal. P<0.05 for ocular versus nephropathic. P>0.05 for ocular versus normal, intermediate versus nephropathic, and intermediate versus normal.

[2] = test system: GM08761 ocular cystinotic fibroblasts; assay: Apoptosis by apoptotic triggers, CaspACE assay; conditions: TNF-a 30 ng/mL with actinomycin D 2.5 μg/mL for 16 hours
Procedure: as §5, §6, §7, §8

[3] = test system: GM00046 nephropathic cystinotic fibroblasts; assay: Apoptosis by apoptotic triggers, CaspACE assay; conditions: TNF-a 30 ng/mL with actinomycin D 2.5 μg/mL for 16 hours
Procedure: as §5, §6, §7, §8

[4] = test system: nephropathic cystinotic fibroblasts (AVG of 3); assay: Apoptosis by apoptotic triggers, CaspACE assay; conditions: TNF-a 30 ng/mL with actinomycin D 2.5 μg/mL for 16 hours, AVG of 3 nephropathic lines
Procedure: as §5, §6, §7, §8

[5] = test system: GM00379 intermediate cystinotic fibroblasts; assay: Apoptosis by apoptotic triggers, CaspACE assay; conditions: TNF-a 30 ng/mL with actinomycin D 2.5 μg/mL for 16 hours
Procedure: as §5, §6, §7, §8

[6] = test system: GM00010 normal fibroblasts; assay: Apoptosis by apoptotic triggers, CaspACE assay; conditions: TNF-a 30 ng/mL with actinomycin D 2.5 μg/mL for 16 hours
Procedure: as §5, §6, §7, §8

[7] = test system: normal fibroblasts (AVG of 2); assay: Apoptosis by apoptotic triggers, CaspACE assay; conditions: TNF-a 30 ng/mL with actinomycin D 2.5 μg/mL for 16 hours, AVG of 2 normal lines
Procedure: as §5, §6, §7, §8

[8] = test system: GM05399 normal fibroblasts; assay: Apoptosis by apoptotic triggers, CaspACE assay; conditions: TNF-a 30 ng/mL with actinomycin D 2.5 μg/mL for 16 hours
Procedure: as §5, §6, §7, §8

[9] = test system: GM00760 nephropathic cystinotic fibroblasts; assay: Apoptosis by apoptotic triggers, CaspACE assay; conditions: TNF-a 30 ng/mL with actinomycin D 2.5 μg/mL for 16 hours
Procedure: as §5, §6, §7, §8

[10] = test system: cathepsin B in normal and nephropathic cystinotic fibroblasts; assay: Cathepsin B localisation by immunohistochemistry; conditions: after TNF-a exposure; Lysotracker red and anti-cathepsin B staining
Procedure: Cells were stained by Lysotracker® Red stain (Molecular Probes) for 5 minutes at room temperature, washed twice in PBS, and then fixed in 4% formalin for 1 hour. Slides were immersed in blocking buffer (PBS, pH 7.2, 0.5% Carnation® dry milk, 0.1% Triton® X-100 reagent) for 20 minutes at room temperature, washed twice in PBS, and then incubated with primary antibody (anti-cathepsin B, Santa Cruz Biotechnologies) diluted 1:100 for 2 hours at room temperature, followed by incubation with secondary antibody (FITC-conjugated rabbit anti-goat, Santa Cruz Biotechnologies), at 4° C. overnight. Slides were washed twice with PBS and then sealed with cover slips and viewed using a Leica® DMRX deconvoluting microscope.
To substantiate that lysosomes are perneabilized by TNF-a (Guicciardi M, 2000J. Clin. Invest., 106:1127-1137) under these conditions, cathepsin B (a lysosomal cysteine protease) was localized by immunohistochemistry in normal and nephropathic cystinotic cells before and after induction of apoptosis. Fibroblasts were maintained under normal culture conditions, exposed to TNF-a, loaded with Lysotracker® red reagent, fixed, and stained for cathepsin B using an anti-cathepsin B antibody. Photographs were made via a deconvoluting microscope.
Lysosomes were identified with Lysotracker red dye. […]

[11] = test system: GM00008 nephropathic cystinotic fibroblasts; assay: Apoptosis by apoptotic triggers, TUNEL assay; conditions: TNF-a 30 ng/mL with actinomycin D 2.5 μg/mL for 16 hours
Procedure: as §5, §6
(§9) 2. TUNEL Assay • The TUNEL assay employs terminal deoxynucleotidyl transferase (TdT) to label the ends of double stranded DNA breaks, which occur in apoptotic cells, with FITC-conjugated dUTP. Cells were fixed in 4% buffered formalin, washed, incubated in permeabilization solution (0.1% Triton X-100 in 0.1% Na Citrate) for 2 minutes on ice and then stained with 25 μL of TdT/45 μL of labeled dNTP mix for 40 minutes at 37° C. The cells were visually enumerated by fluorescence microscopy, scoring a minimum of five fields (250 to 300 cells) for fluorescence in triplicate followed by counting all cells in the same field by light microscopy, with a minimum of 750 cells scored per condition. The apoptosis rate is the total number of cells that fluoresce divided by the total cells in the field.
(§10) In another experiment, cells were treated with apoptosis inducers as indicated, stained with TUNEL reagent, and analyzed by florescence microscopy. A minimum of 250 cells were scored per conditions in triplicate. […] P>0.05 for ocular versus normal and intermediate; P=0.01 for ocular versus nephropathic.

[12] = test system: GM08761 ocular cystinotic fibroblasts; assay: Apoptosis by apoptotic triggers, TUNEL assay; conditions: TNF-a 30 ng/mL with actinomycin D 2.5 μg/mL for 16 hours
Procedure: as §5, §6, §9, §10

[13] = test system: GM00046 nephropathic cystinotic fibroblasts; assay: Apoptosis by apoptotic triggers, TUNEL assay; conditions: TNF-a 30 ng/mL with actinomycin D 2.5 μg/mL for 16 hours
Procedure: as §5, §6, §9, §10

[14] = test system: nephropathic cystinotic fibroblasts (AVG of 3); assay: Apoptosis by apoptotic triggers, TUNEL assay; conditions: TNF-a 30 ng/mL with actinomycin D 2.5 μg/mL for 16 hours, AVG of 3 nephropathic lines
Procedure: as §5, §6, §9, §10

[15] = test system: GM00379 intermediate cystinotic fibroblasts; assay: Apoptosis by apoptotic triggers, TUNEL assay; conditions: TNF-a 30 ng/mL with actinomycin D 2.5 μg/mL for 16 hours
Procedure: as §5, §6, §9, §10

[16] = test system: GM00010 normal fibroblasts; assay: Apoptosis by apoptotic triggers, TUNEL assay; conditions: TNF-a 30 ng/mL with actinomycin D 2.5 μg/mL for 16 hours
Procedure: as §5, §6, §9, §10

[17] = test system: normal fibroblasts (AVG of 2); assay: Apoptosis by apoptotic triggers, TUNEL assay; conditions: TNF-a 30 ng/mL with actinomycin D 2.5 μg/mL for 16 hours, AVG of 2 normal lines
Procedure: as §5, §6, §9, §10

[18] = test system: GM05399 normal fibroblasts; assay: Apoptosis by apoptotic triggers, TUNEL assay; conditions: TNF-a 30 ng/mL with actinomycin D 2.5 μg/mL for 16 hours
Procedure: as §5, §6, §9, §10

[19] = test system: GM00760 nephropathic cystinotic fibroblasts; assay: Apoptosis by apoptotic triggers, TUNEL assay; conditions: TNF-a 30 ng/mL with actinomycin D 2.5 μg/mL for 16 hours
Procedure: as §5, §6, §9, §10

CC/C(=C(\c1ccccc1)c1ccc(OCCN(C)C)cc1)c1ccccc1 [Tamoxifen, tamoxifen, reference compound]
percent of apoptotic cells (±S.D.) (MDA-MB-468 (ER−)): 90.37 ± 1.70% | percent of apoptotic cells (±S.D.) (T-47D (ER+)): 99.91 ± 0.08% | percent of apoptotic cells (±S.D.) (MDA-MB-231 (ER−)): 98.92 ± 0.99% | percent of apoptotic cells (±S.D.) (MCF-7 (ER+)): 98.47 ± 0.53%

TNF-a
% Apoptosis [1]: 14.9% | % Apoptosis [2]: 8.2% | % Apoptosis [3]: 16.1% | % Apoptosis [4]: 14.8% | % Apoptosis [5]: 11.4% | % Apoptosis [6]: 9.2% | % Apoptosis [7]: 7.8% | % Apoptosis [8]: 6.3% | % Apoptosis [9]: 13.5% | localisation of cathepsin B [10]: translocation of cathepsin B from a lysosomal location to a diffuse cytosolic location | % Apoptosis [11]: 17.1% | % Apoptosis [12]: 5.5% | % Apoptosis [13]: 15.3* % | % Apoptosis [14]: 17.2% | % Apoptosis [15]: 8.2% | % Apoptosis [16]: 12.8% | % Apoptosis [17]: 12.1% | % Apoptosis [18]: 11.4% | % Apoptosis [19]: 19.3%
